Test results: PubChem BioAssay AID330 (DTP/NCI, 2004)
Where “and” joins values, the source holds several entries; their conditions need not be identical. Equal entries are not always repeated. Toxic doses and inconclusive results are not listed. The calls were made as follows: active = survival T/C of 150% or more; inactive = T/C below 125% in these data.

Tested on: P388 leukemia ip, CD2F1 mice, survival T/C
Test: NCI In Vivo Anticancer Drug Screen. Data for tumor model P388 Leukemia (intraperitoneal) in CD2F1 (CDF1) mice
Settings: endpoint: median survival time, higher = longer survival
Outline: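 Mice carrying the transplanted tumor received test compound or vehicle. Survival was recorded in each group, and the value is the treated-group measurement divided by that of the vehicle-treated control group.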

[1] = dose: 60.0 mg/kg/injection, schedule: Q01DX005 (ip), vehicle: saline with Tween-80
[2] = dose: 120.0 mg/kg/injection, schedule: Q01DX005 (ip), vehicle: saline with Tween-80
[3] = dose: 240.0 mg/kg/injection, schedule: Q01DX005 (ip), vehicle: saline with Tween-80
[4] = dose: 50.0 mg/kg/injection, schedule: Q01DX005 (ip), vehicle: Klucel (hydroxypropylcellulose) (HPC)
[5] = dose: 100.0 mg/kg/injection, schedule: Q01DX005 (ip), vehicle: Klucel (hydroxypropylcellulose) (HPC)
[6] = dose: 200.0 mg/kg/injection, schedule: Q01DX005 (ip), vehicle: Klucel (hydroxypropylcellulose) (HPC)
[7] = dose: 6.25 mg/kg/injection, schedule: Q01DX009 (ip), vehicle: saline
[8] = dose: 12.5 mg/kg/injection, schedule: Q01DX009 (ip), vehicle: saline
[9] = dose: 100.0 mg/kg/injection, schedule: Q01DX009 (ip), vehicle: saline with Tween-80
[10] = dose: 200.0 mg/kg/injection, schedule: Q01DX009 (ip), vehicle: saline with Tween-80
[11] = dose: 400.0 mg/kg/injection, schedule: Q01DX009 (ip), vehicle: saline with Tween-80
[12] = dose: 50.0 mg/kg/injection, schedule: Q01DX009 (ip), vehicle: saline with Tween-80

Measured: T/C

CCOC(=O)c1noc(Oc2ccc(Cl)cc2Cl)n1
inactive: [1] 93 % of control | [2] 97 % of control | [3] 90 % of control

COC(=O)c1c(C(=O)OC)c(-c2ccccc2)n(CCn2c(-c3ccccc3)c(C(=O)OC)c(C(=O)OC)c2-c2ccccc2)c1-c1ccccc1
inactive: [4] 96 % of control | [5] 93 % of control | [6] 95 % of control

N#CSCc1ccccc1
inactive: dose: 3.13 mg/kg/injection, schedule: Q01DX009 (ip), vehicle: saline 100 % of control | [7] 105 % of control | [8] 104 % of control

O=C(NCCc1ccc(Cl)cc1)c1ccc(Cl)cc1
inactive: [1] 96 % of control | [2] 97 % of control | [3] 91 % of control

Brc1ccc(-c2csc(Nc3nc(-c4ccc(Br)cc4)cs3)n2)cc1
inactive: [9] 95 % of control | [10] 100 % of control | [11] 104 % of control

O=C1c2ccccc2C(=O)N1CN1C(=O)c2ccccc2C1=O
inactive: dose: 25.0 mg/kg/injection, schedule: Q01DX009 (ip), vehicle: saline with Tween-80 95 % of control | [12] 115 % of control and 90 % of control | [9] 90 % of control | [10] 100 % of control

Clc1ccc(-c2noc(/C=C\c3ccccc3)n2)cc1
inactive: dose: 25.0 mg/kg/injection, schedule: Q01DX009 (ip), vehicle: Klucel (hydroxypropylcellulose) (HPC) 99 % of control and 86 % of control | dose: 50.0 mg/kg/injection, schedule: Q01DX009 (ip), vehicle: Klucel (hydroxypropylcellulose) (HPC) 98 % of control and 86 % of control | dose: 100.0 mg/kg/injection, schedule: Q01DX009 (ip), vehicle: Klucel (hydroxypropylcellulose) (HPC) 86 % of control and 97 % of control | dose: 200.0 mg/kg/injection, schedule: Q01DX009 (ip), vehicle: Klucel (hydroxypropylcellulose) (HPC) 95 % of control

CC(=O)c1ccccc1N=O
inactive: dose: 50.0 mg/kg/injection, schedule: Q01DX001 (ip), vehicle: other 102 % of control | dose: 100.0 mg/kg/injection, schedule: Q01DX001 (ip), vehicle: other 101 % of control and 107 % of control | dose: 200.0 mg/kg/injection, schedule: Q01DX001 (ip), vehicle: other 100 % of control | dose: 400.0 mg/kg/injection, schedule: Q01DX001 (ip), vehicle: other 102 % of control

CSc1ccc(N2C(=O)CCSC2=S)cc1Cl
inactive: dose: 50.0 mg/kg/injection, schedule: Q01DX009 (ip), vehicle: suspension in saline 108 % of control | dose: 100.0 mg/kg/injection, schedule: Q01DX009 (ip), vehicle: suspension in saline 110 % of control | dose: 200.0 mg/kg/injection, schedule: Q01DX009 (ip), vehicle: suspension in saline 114 % of control

NC(=S)N/N=C\Cn1cc([N+](=O)[O-])c(=O)[nH]c1=O
inactive: [4] 101 % of control | [5] 87 % of control

NC(=O)C1C(C(N)=O)C2C3C=CC(C4C(=O)NC(=O)C34)C12 (configuration not stated)
inactive: dose: 100.0 mg/kg/injection, schedule: Q04DX002 (ip), vehicle: saline with Tween-80 102 % of control | dose: 200.0 mg/kg/injection, schedule: Q04DX002 (ip), vehicle: saline with Tween-80 109 % of control | dose: 400.0 mg/kg/injection, schedule: Q04DX002 (ip), vehicle: saline with Tween-80 111 % of control

O=C(Nc1ccc(C2=NCCN2)cc1)c1cc2cc(C3=NCCN3)ccc2o1
inactive: dose: 12.5 mg/kg/injection, schedule: Q04DX003 (ip), vehicle: suspension in saline 100 % of control | dose: 25.0 mg/kg/injection, schedule: Q04DX003 (ip), vehicle: suspension in saline 102 % of control | dose: 50.0 mg/kg/injection, schedule: Q04DX003 (ip), vehicle: suspension in saline 100 % of control

CN1C(=O)NC(=O)C(C)(C2(Br)CCCCC2)C1=O (configuration not stated)
inactive: dose: 100.0 mg/kg/injection, schedule: Q01DX001 (ip), vehicle: Klucel (hydroxypropylcellulose) (HPC) 106 % of control | dose: 200.0 mg/kg/injection, schedule: Q01DX001 (ip), vehicle: Klucel (hydroxypropylcellulose) (HPC) 99 % of control | dose: 400.0 mg/kg/injection, schedule: Q01DX001 (ip), vehicle: Klucel (hydroxypropylcellulose) (HPC) 99 % of control

O=C1NC(=O)C(CCCCCl)N1 (configuration not stated)
inactive: [4] 100 % of control | [5] 102 % of control | [6] 98 % of control

Cn1nnc(-c2ccc([N+](=O)[O-])cc2)n1
inactive: dose: 100.0 mg/kg/injection, schedule: Q04DX003 (ip), vehicle: Klucel (hydroxypropylcellulose) (HPC) 105 % of control | dose: 200.0 mg/kg/injection, schedule: Q04DX003 (ip), vehicle: Klucel (hydroxypropylcellulose) (HPC) 103 % of control | dose: 400.0 mg/kg/injection, schedule: Q04DX003 (ip), vehicle: Klucel (hydroxypropylcellulose) (HPC) 103 % of control

CC1(C)CC(N2CCOCC2)=CC(=NCc2ccccc2)N1
inactive: dose: 12.5 mg/kg/injection, schedule: Q01DX005 (ip), vehicle: Klucel (hydroxypropylcellulose) (HPC) 107 % of control | dose: 25.0 mg/kg/injection, schedule: Q01DX005 (ip), vehicle: Klucel (hydroxypropylcellulose) (HPC) 99 % of control | [4] 100 % of control and 101 % of control

CC(=NCCCCN=C(C)c1cc(O)cc(Br)c1O)c1cc(O)cc(Br)c1O.[Co]
inactive: [1] 90 % of control | [2] 98 % of control | [3] 94 % of control

On1cc/c(=N\N=C\c2ccc(N(CCCl)CCCl)cc2)c2ccccc21
inactive: dose: 100.0 mg/kg/injection, schedule: Q04DX003 (ip), vehicle: saline + Tween-80 + alcohol 99 % of control | dose: 200.0 mg/kg/injection, schedule: Q04DX003 (ip), vehicle: saline + Tween-80 + alcohol 106 % of control | dose: 400.0 mg/kg/injection, schedule: Q04DX003 (ip), vehicle: saline + Tween-80 + alcohol 102 % of control

NC(=O)C1=NOC(C(N)=O)C1C1OC(CO)C(O)C1O (configuration not stated)
inactive: dose: 25.0 mg/kg/injection, schedule: Q01DX005 (ip), vehicle: other 98 % of control | dose: 50.0 mg/kg/injection, schedule: Q01DX005 (ip), vehicle: other 97 % of control | dose: 100.0 mg/kg/injection, schedule: Q01DX005 (ip), vehicle: other 95 % of control | dose: 200.0 mg/kg/injection, schedule: Q01DX005 (ip), vehicle: other 105 % of control

CCOC(=O)C1(N)CCCC1
inactive: [7] 105 % of control and 86 % of control | [8] 100 % of control and 102 % of control | dose: 25.0 mg/kg/injection, schedule: Q01DX009 (ip), vehicle: saline 100 % of control and 96 % of control | dose: 50.0 mg/kg/injection, schedule: Q01DX009 (ip), vehicle: saline 114 % of control and 96 % of control

COC(CNCc1ccccc1)OC
inactive: dose: 37.5 mg/kg/injection, schedule: Q04DX003 (ip), vehicle: saline 98 % of control | dose: 75.0 mg/kg/injection, schedule: Q04DX003 (ip), vehicle: saline 104 % of control | dose: 150.0 mg/kg/injection, schedule: Q04DX003 (ip), vehicle: saline 95 % of control | dose: 300.0 mg/kg/injection, schedule: Q04DX003 (ip), vehicle: saline 98 % of control

CC(=O)Nc1ccc(S(=O)(=O)N/N=C\c2cc([N+](=O)[O-])ccc2O)cc1
inactive: dose: 50.0 mg/kg/injection, schedule: Q01DX005 (ip), vehicle: saline with Tween-80 103 % of control | dose: 100.0 mg/kg/injection, schedule: Q01DX005 (ip), vehicle: saline with Tween-80 101 % of control | dose: 200.0 mg/kg/injection, schedule: Q01DX005 (ip), vehicle: saline with Tween-80 93 % of control

CC(C)OC(=S)NC(=O)c1ccccc1
inactive: [12] 109 % of control | [9] 100 % of control | [10] 103 % of control | [11] 108 % of control

CN1CCc2cc(O)c(O)cc2C1
inactive: dose: 100.0 mg/kg/injection, schedule: Q04DX003 (ip), vehicle: saline 98 % of control | dose: 200.0 mg/kg/injection, schedule: Q04DX003 (ip), vehicle: saline 103 % of control
